According to patent US8575357B2, “Substituted (thiazolyl-carbonyl)imidazolidinones and use thereof” (AiCuris GmbH & Co. KG, priority 2009, dated 2013):
Read-outs that look alike come from different tables or passages of the source.

How the values were obtained:
[1] = target: T1, reverse transcriptase (Human immunodeficiency virus type 1 group M subtype B, UniProt P04585); test: Biochemical reverse transcriptase assay (Reverse Transcriptase Assay, colorimetric, Roche)
T1 construct: negative control (mixture without reverse transcriptase); purchased Roche Diagnostics GmbH, Mannheim, Germany
Method: The “Reverse Transcriptase Assay, colorimetric” (Roche Diagnostics GmbH, Mannheim, Germany) is used in accordance with the manufacturer's information. The test substances are dissolved in DMSO and are used in the test diluted in 5-fold steps (final DMSO concentration 1%). The resulting values of the photometric evaluation (405/492 nm) are less than 0.1 for the negative control (mixture without reverse transcriptase) and are in the region of 1.5 for the positive control (mixture without test substance). The IC50 values of the test substances are determined as the concentration of the test substance dilution at which the measured optical density is 50% of the positive control.

[2] = tested on: HIV-1NL4-3 reporter virus, wild-type; test: Light assay with wild-type HI reporter virus in MT4 7F2 cells; format: cell-based; conditions: Human immunodeficiency virus 1, 120 h, read-out: EC50 (nM) MT4 7F2 cells HIV-1NL4-M3 wt 2% FCS
Method: (§1) For the mixture for a 96-well MTP, 3 million MT4 7F2 cells are pelleted, suspended in 1 ml of RPMI 1640 medium without phenol red (Invitrogen, Karlsruhe, Germany)/10% FCS/10% AIM-V (Invitrogen, Karlsruhe, Germany) and incubated together with a suitable amount of the corresponding HIV-1NL4-3 reporter virus at 37° C. for 2 hours (pellet infection). Unadsorbed viruses are subsequently washed out with PBS, and the infected cells are pelleted again and suspended in 8 ml of RPMI 1640 medium without phenol red/2% or 10% FCS/10% AIM-V. 80 μl thereof are pipetted into each well of a white 96-well MTP with 20 μl of test substance in suitable dilution. To avoid edge effects, the wells on the edge of the MTP are not used for substance dilutions. The second vertical row of the MTP contains only infected cells (virus control) and the eleventh vertical row only uninfected cells (cell control), in each case in RPMI 1640 medium without phenol red/2% or 10% FCS/10% AIM-V. The other wells of the MTP contain the compounds of the invention in various concentrations starting from the third vertical row, from which the test substances are diluted in 3-fold steps up to the tenth vertical row 3^7-fold. The test substances are dissolved in DMSO, whereby the final DMSO concentration in the test mixture is 1%. The test mixtures are incubated at 37° C./5% CO2 for five days and, after the addition of 15 μl of Lu164 substrate (5 mg/ml coelenterazine dissolved in 30 μM glutathione/DMSO, 100 mM NaCl, 1M MES, 100 mM glutathione), evaluated by luminometry. The resulting values are in the region of 1 000 000 RLUs (relative light units) for the virus control and 300 to 400 RLUs for the cell control. The EC50 values of the test substances are determined as the concentration at which the virus replication measured in RLUs is 50% of the untreated infected cells.

[3] = tested on: HIV-1LAI; test: H9 assay with wild-type HIV-1 (HIV-1LAI supernatant infection, AlamarBlue); format: cell-based; conditions: Human immunodeficiency virus 1, 120 h, H9 cells, 10% FCS, 5 days
Method: For the mixture for a 96-well MTP, 3 million PBLs are pelleted, suspended in 1 ml of RPMI 1640 medium/10% FCS and incubated together with a suitable amount of HIV-1LAI (NIH AIDS Research & Reference Reagent Program, Germantown, USA) at 37° C. for 2 hours (pellet infection). Unadsorbed viruses are subsequently washed out with PBS, and the infected cells are pelleted again and suspended in 18 ml of RPMI 1640 medium/10% FCS/interleukin-2 (40 U/ml). 180 μl thereof are pipetted into each well of a white 96-well MTP with 20 μl of test substance in suitable dilution. Alternatively, after preparation of the substance dilutions in the MTP, the HIV is pipetted in together with the cells and is not washed out again (supernatant infection). In order to avoid edge effects, the wells at the edge of the MTP are not used for substance dilutions. The second vertical row of the MTP contains only infected cells (virus control) and the eleventh vertical row only uninfected cells (cell control), in each case in RPMI 1640 medium/10% FCS/interleukin-2 (40 U/ml). The other wells of the MTP contain the compounds of the invention in various concentrations starting from the third vertical row, from which the test substances are diluted in 3-fold steps up to the tenth vertical row 3^7-fold. The test substances are dissolved in DMSO, whereby the final DMSO concentration in the test mixture is 1%. The test mixtures are incubated at 37° C./5% CO2. After 5 and 7 days, 50 μl of cell-free supernatant are removed from each well to determine the amount of p24 present by means of a p24 ELISA (HIV-1 p24^CA Antigen Capture Assay Kit, NCI-Frederick Cancer Research and Development Center, Frederick, USA). From the resulting values of the photometric evaluation (450/620 nm) the EC50 values of the test substances are determined as the concentration at which the amount of p24 is 50% of the untreated infected cells.
Alternatively, H9 cells (ATCC, Wesel, Germany) are employed instead of PBLs for testing the test substances. H9 cells are incubated in RPMI 1640 medium with 2% or 10% FCS as a HIV-1LAI supernatant infection at 37° C./5% CO2, (20 μl of substance dilution and 80 μl of cells/virus per well) in accordance with the pattern described above for 5 days. Subsequently, 10 μl of AlamarBlue (Invitrogen, Karlsruhe, Germany) are added to each well, and the MTPs are incubated at 37° C. for 3 hours before the fluorimetric evaluation takes place (544/590 nm). The resulting values are about 40 000 for the untreated uninfected cells and about 7000 for the untreated infected cells. In the low concentration range, the EC50 values of the test substances are determined as the concentration at which the fluorescence is 50% of the untreated uninfected cells (in each case subtracting the values of the untreated infected cells). In addition, in the high concentration range, the CC50 values of the test substances are determined as the concentration at which the fluorescence is 50% of the untreated uninfected cells (in each case subtracting the values of the untreated infected cells).

[4] = tested on: HIV-1NL4-3 reporter virus, reverse transcriptase mutations K103N-Y181C; test: Light assay with inhibitor-resistant HI reporter virus in MT4 7F2 cells; format: cell-based; conditions: Human immunodeficiency virus 1, 120 h, read-out: EC50 (nM) MT4 7F2 cells HIV-1NL4-M3 K103N-Y181C 2% FCS
Method: as §1

[5] = colorimetric RT assay, final DMSO 1%, read-out: IC50 (nM) RT assay

SMILES	IC50 [1, 5] [nM]	EC50 [2] [nM]	EC50 [3] [nM]	EC50 [4] [nM]	IC50 [1] [nM]
O=C1CN(C(=O)c2nc(-c3cccc(Cl)c3)c(-c3cc(F)cc(Cl)c3)s2)CN1 [Example 3, 1-{[5-(3-Chloro-5-fluorophenyl)-4-(3-chlorophenyl)-1,3-thiazole-2-yl]carbonyl}imidazolidin-4-one]	20	0.6	12	60	
N#Cc1cc(F)cc(-c2sc(C(=O)N3CNC(=O)C3)nc2-c2ccc(F)c(Cl)c2)c1 [Example 11]		5	4	69	13
O=C1CN(C(=O)c2nc(-c3cccc(Cl)c3)c(-c3cccc(Cl)c3)s2)CN1 [Example 20, 1-{[4,5-Bis(3-chlorophenyl)-1,3-thiazole-2-yl]carbonyl}imidazolidin-4-one]	47	1	7	149	
